The values that follow come from patent US6656932B2, “Benzo thiadiazine matrix metalloproteinase inhibitors” (Warner-Lambert Company, priority 2001, dated 2003).

The term IC50 denotes the concentration that gives 50% inhibition.

Holding throughout (format): biochemical
Assay [1] addresses T1, MMP-1FL (full-length interstitial collagenase) (Homo sapiens, UniProt P03956).
T1 sequence (P03956 100-469): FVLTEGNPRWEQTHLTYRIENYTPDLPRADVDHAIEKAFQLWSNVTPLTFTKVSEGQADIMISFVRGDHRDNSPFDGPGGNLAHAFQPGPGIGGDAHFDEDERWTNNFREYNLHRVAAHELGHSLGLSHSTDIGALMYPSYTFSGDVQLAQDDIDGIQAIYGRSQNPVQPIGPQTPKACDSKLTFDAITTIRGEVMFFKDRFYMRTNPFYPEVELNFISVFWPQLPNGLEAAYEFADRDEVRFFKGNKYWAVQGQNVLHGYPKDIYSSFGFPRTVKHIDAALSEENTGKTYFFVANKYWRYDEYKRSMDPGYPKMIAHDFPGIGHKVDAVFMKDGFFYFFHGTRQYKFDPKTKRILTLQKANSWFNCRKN
In words: Thiopeptolide hydrolysis assay, MMP-1FL. As to conditions: Table 2; thiopeptolide substrate, HEPES pH 7.0; read-out: IC50 (μM) Versus Certain MMPs: MMP01 (FL). The text has this: (§1) The invention compounds of Formula I have been evaluated in standard assays for their ability to inhibit the catalytic activity of various MMP enzymes.
(§2) Thiopeptolide substrates show virtually no decomposition or hydrolysis at or below neutral pH in the absence of a matrix metalloproteinase enzyme.
(§3) Several representative compounds have been evaluated for their ability to inhibit various matrix metalloproteinase enzymes.

Assay [2] deals with MMP-9FL (full-length Gelatinase B) (Homo sapiens, UniProt P14780). In words: Thiopeptolide hydrolysis assay, MMP-9FL. As to conditions: Table 2; thiopeptolide substrate, HEPES pH 7.0; read-out: IC50 (μM) Versus Certain MMPs: MMP09 (FL).
Sequence of MMP-9FL (full-length Gelatinase B) (P14780 94-707, species assumed): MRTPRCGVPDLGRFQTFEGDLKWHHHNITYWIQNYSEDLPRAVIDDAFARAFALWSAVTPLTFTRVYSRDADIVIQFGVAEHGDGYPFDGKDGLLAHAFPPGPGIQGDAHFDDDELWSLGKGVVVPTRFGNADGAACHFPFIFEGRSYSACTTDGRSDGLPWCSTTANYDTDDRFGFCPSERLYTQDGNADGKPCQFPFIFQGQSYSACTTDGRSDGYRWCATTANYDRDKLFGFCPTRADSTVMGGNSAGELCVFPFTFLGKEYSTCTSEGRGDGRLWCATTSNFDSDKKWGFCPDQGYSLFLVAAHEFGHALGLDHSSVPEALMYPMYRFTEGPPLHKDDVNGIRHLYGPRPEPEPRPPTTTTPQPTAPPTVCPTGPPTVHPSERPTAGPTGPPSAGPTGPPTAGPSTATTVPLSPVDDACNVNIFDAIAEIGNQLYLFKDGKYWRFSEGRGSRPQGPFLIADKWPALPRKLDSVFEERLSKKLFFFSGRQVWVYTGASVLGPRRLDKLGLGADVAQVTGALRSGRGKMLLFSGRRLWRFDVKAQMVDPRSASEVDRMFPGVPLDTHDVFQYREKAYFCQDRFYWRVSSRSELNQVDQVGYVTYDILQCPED
Source text: as §1, §2, §3

In assay [3] the target is MMP-3CD (catalytic domain of stromelysin-1) (Homo sapiens, UniProt P08254). In words: Thiopeptolide hydrolysis assay, MMP-3CD. As to conditions: Table 2; thiopeptolide substrate, MES buffer pH 6.0; read-out: IC50 (μM) Versus Certain MMPs: MMP03 (CD).
Sequence of MMP-3CD (catalytic domain of stromelysin-1) (P08254 100-272 limits assumed): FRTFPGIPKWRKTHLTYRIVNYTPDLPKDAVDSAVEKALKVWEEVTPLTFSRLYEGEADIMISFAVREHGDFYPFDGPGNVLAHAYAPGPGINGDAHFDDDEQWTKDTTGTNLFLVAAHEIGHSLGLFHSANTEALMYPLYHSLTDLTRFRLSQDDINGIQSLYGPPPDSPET
The target in assay [4] is MMP-14CD (catalytic domain of MMP-14) (Homo sapiens, UniProt P50281). Briefly: Thiopeptolide hydrolysis assay, MMP-14CD. The following applies: Table 2; thiopeptolide substrate, HEPES pH 7.0; read-out: IC50 (μM) Versus Certain MMPs: MMP14 (CD).
Source text: as §1, §2, §3

Assay [5] deals with T2, MMP-2FL (full-length Gelatinase A) (Homo sapiens, UniProt P08253).
T2 sequence (P08253 110-660): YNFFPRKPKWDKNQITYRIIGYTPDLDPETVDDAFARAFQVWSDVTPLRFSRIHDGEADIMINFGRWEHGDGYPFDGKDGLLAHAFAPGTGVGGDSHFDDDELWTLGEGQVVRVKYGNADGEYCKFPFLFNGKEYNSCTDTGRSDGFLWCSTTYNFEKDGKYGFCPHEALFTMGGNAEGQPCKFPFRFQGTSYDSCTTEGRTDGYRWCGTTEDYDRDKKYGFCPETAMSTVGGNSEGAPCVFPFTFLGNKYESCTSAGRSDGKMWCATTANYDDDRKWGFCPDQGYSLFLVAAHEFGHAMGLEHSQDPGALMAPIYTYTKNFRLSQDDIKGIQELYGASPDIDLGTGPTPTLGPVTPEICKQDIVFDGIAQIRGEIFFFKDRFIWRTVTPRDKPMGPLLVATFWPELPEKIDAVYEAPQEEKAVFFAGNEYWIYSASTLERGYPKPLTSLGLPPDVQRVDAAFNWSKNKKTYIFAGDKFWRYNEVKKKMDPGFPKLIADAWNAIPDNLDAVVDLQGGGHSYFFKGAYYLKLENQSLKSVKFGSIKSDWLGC
Briefly: Thiopeptolide hydrolysis assay, MMP-2FL. The following applies: Table 2; thiopeptolide substrate, HEPES pH 7.0; read-out: IC50 (μM) Versus Certain MMPs: MMP02 (FL).
Source text: as §1, §2, §3

The target of assay [6] is MMP-13CD (catalytic domain of collagenase 3) (Homo sapiens, UniProt P45452). In words: Thiopeptolide hydrolysis assay, MMP-13CD. As to conditions: Table 2; thiopeptolide substrate, HEPES pH 7.0; read-out: IC50 (μM) Versus Certain MMPs: MMP13 (CD).
Source text: as §1, §2, §3

In assay [7] the target is T3, MMP-7FL (full-length matrilysin) (Homo sapiens, UniProt P09237).
T3 sequence (P09237 95-267): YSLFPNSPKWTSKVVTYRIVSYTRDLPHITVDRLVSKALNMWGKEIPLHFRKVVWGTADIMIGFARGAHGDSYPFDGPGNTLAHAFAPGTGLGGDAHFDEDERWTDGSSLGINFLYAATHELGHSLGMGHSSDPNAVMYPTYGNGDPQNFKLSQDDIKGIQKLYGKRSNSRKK
In words: Thiopeptolide hydrolysis assay, MMP-7FL. The following applies: Table 2; thiopeptolide substrate, HEPES pH 7.0; read-out: IC50 (μM) Versus Certain MMPs: MMP07 (FL).
Source text: as §1, §2, §3

On to `COc1ccc(CNC(=O)c2ccc3c(c2)S(=O)(=O)N(Cc2ccc(C(=O)O)cc2)C(=O)N3C)cc1` [Example 13, 4-[7-(4-Methoxy-benzylcarbamoyl)-4-methyl-1,1,3-trioxo-3,4-dihydro-1H-1l^6-benzo[1,2,4]thiadiazin-2-ylmethyl]-benzoic Acid], for which the half-inhibitory concentration (IC50) is over 100 µM in assay [1]; over 100 µM in assay [2]; 64 µM in assay [3]; over 100 µM in assay [4]; over 100 µM in assay [5]; 0.011 µM in assay [6]. Besides, the 50% inhibitory concentration (IC50) in assay [7] is over 100 µM.
